The values below come from patent US20030144225A1, “Antisense modulation of macrophage inflammatory protein 3-alpha expression” (priority 2001, published 2003).

Strand notation (5' to 3'): a small letter for the sugar, then the base; units joined by * are phosphorothioate-linked, units joined directly phosphodiester-linked; [ ] holds rarer units or linkages, { } end groups; capitals alone tell only the bases. e = 2'-O-(2-methoxyethyl) (MOE); [5mC] = 5-methylcytosine; d = 2'-deoxy (DNA)

The data set concerns human macrophage inflammatory protein 3-alpha mRNA. The data set is described as follows: Antisense inhibition of human macrophage inflammatory protein 3-alpha mRNA levels, quantitative real-time PCR (Table 1 screen). The data set is classed as cell-based. The conditions noted are these: averages from two experiments, oligonucleotide concentration not given. For orientation: Quantitative PCR measures a nucleic acid by following its amplification.
Regarding “150696 (antisense eG*e[5mC]*eA*e[5mC]*eT*dA*dA*dA*d[5mC]*d[5mC]*dA*dA*dA*dA*dT*eA*eG*e[5mC]*eT*eT) [compound 150696]”, the “% INHIB (inhibition of human macrophage inflammatory protein 3-alpha mRNA levels)” value (from here on “% INHIB”) was 27%.

In the case of “150684 (antisense e[5mC]*eA*eG*e[5mC]*eA*dG*dT*d[5mC]*dA*dA*dA*dG*dT*dT*dG*e[5mC]*eT*eT*eG*e[5mC]) [compound 150684]”, the “% INHIB” value turned out to be 15%.

With “150681 (antisense eT*eG*eG*eT*eT*dT*dT*dT*dA*dG*d[5mC]*dT*d[5mC]*dA*dA*eA*eG*eA*eA*e[5mC]) [compound 150681]”, the “% INHIB” value worked out at 22%.

For the substance “ISIS 150698: 2′-MOE gapmer, phosphorothioate, 5-methylcytidines; GCAATTACAACAATTTAGGA (antisense eG*e[5mC]*eA*eA*eT*dT*dA*d[5mC]*dA*dA*d[5mC]*dA*dA*dT*dT*eT*eA*eG*eG*eA)”, the “% INHIB” value was “at least 20%”.

Regarding “ISIS 150696: 2′-MOE gapmer, phosphorothioate, 5-methylcytidines; GCACTAAACCAAAATAGCTT (antisense eG*e[5mC]*eA*e[5mC]*eT*dA*dA*dA*d[5mC]*d[5mC]*dA*dA*dA*dA*dT*eA*eG*e[5mC]*eT*eT)”, the “% INHIB” value is “at least 20%”.

With “150683 (antisense eA*eA*eG*eT*eT*dG*d[5mC]*dT*dT*dG*d[5mC]*dT*dG*d[5mC]*dT*eT*e[5mC]*eT*eG*eA) [compound 150683]”, the “% INHIB” value is recorded as 15%.

Take “ISIS 150692: 2′-MOE gapmer, phosphorothioate, 5-methylcytidines; GCAATATGAATCAACTTCAT (antisense eG*e[5mC]*eA*eA*eT*dA*dT*dG*dA*dA*dT*d[5mC]*dA*dA*d[5mC]*eT*eT*e[5mC]*eA*eT)”: the “% INHIB” value is “at least 20%”.

Take “150678 (antisense eA*eG*eT*eG*eT*dT*dG*dA*dG*dT*dA*d[5mC]*d[5mC]*d[5mC]*dA*eG*eT*eT*e[5mC]*eT) [compound 150678]”: the “% INHIB” value is listed as 34%.

With “150686 (antisense eA*eT*eT*e[5mC]*e[5mC]*dA*dG*dA*dA*dA*dA*dG*d[5mC]*d[5mC]*dA*e[5mC]*eA*eG*eT*eT) [compound 150686]”, the “% INHIB” value stood at 1%.

As for “ISIS 150682: 2′-MOE gapmer, phosphorothioate, 5-methylcytidines; GTACAGCACATGGTTTTAG”, the “% INHIB” value was “at least 20%”.

As to “ISIS 150693: 2′-MOE gapmer, phosphorothioate, 5-methylcytidines; ACTATGATGCAATATGAATC (antisense eA*e[5mC]*eT*eA*eT*dG*dA*dT*dG*d[5mC]*dA*dA*dT*dA*dT*eG*eA*eA*eT*e[5mC])”, the “% INHIB” value is reported as “at least 20%”.

For “150698 (antisense eG*e[5mC]*eA*eA*eT*dT*dA*d[5mC]*dA*dA*d[5mC]*dA*dA*dT*dT*eT*eA*eG*eG*eA) [compound 150698]”, the “% INHIB” value came to 21%.

As to “ISIS 150689: 2′-MOE gapmer, phosphorothioate, 5-methylcytidines; CAAGGTTCTTTCTGTTCTTG (antisense e[5mC]*eA*eA*eG*eG*dT*dT*d[5mC]*dT*dT*dT*d[5mC]*dT*dG*dT*eT*e[5mC]*eT*eT*eG)”, the “% INHIB” value was “at least 20%”.

In the case of “ISIS 150687: 2′-MOE gapmer, phosphorothioate, 5-methylcytidines; GTCCAATTCCATTCCAGAAA (antisense eG*eT*e[5mC]*e[5mC]*eA*dA*dT*dT*d[5mC]*d[5mC]*dA*dT*dT*d[5mC]*d[5mC]*eA*eG*eA*eA*eA)”, the “% INHIB” value is recorded as “at least 20%”.

Turning to “150694 (antisense eA*eT*eG*eT*eG*dA*dT*dG*d[5mC]*dT*dT*dA*dA*dA*d[5mC]*eA*eA*eA*eG*e[5mC]) [compound 150694]”, the “% INHIB” value was 30%.

Take “ISIS 150680: 2′-MOE gapmer, phosphorothioate, 5-methylcytidines; CTCAAAGAACAGATCTGCTC (antisense e[5mC]*eT*e[5mC]*eA*eA*dA*dG*dA*dA*d[5mC]*dA*dG*dA*dT*d[5mC]*eT*eG*e[5mC]*eT*e[5mC])”: the “% INHIB” value was “at least 20%”.

Consider “ISIS 150688: 2′-MOE gapmer, phosphorothioate, 5-methylcytidines; CTTGGGCTATGTCCAATTCC (antisense e[5mC]*eT*eT*eG*eG*dG*d[5mC]*dT*dA*dT*dG*dT*d[5mC]*d[5mC]*dA*eA*eT*eT*e[5mC]*e[5mC])”, for which the “% INHIB” value is recorded as “at least 20%”.

For the substance “150695 (antisense e[5mC]*eA*e[5mC]*eA*eG*dA*dA*dA*dA*d[5mC]*d[5mC]*dT*dA*d[5mC]*dA*eG*e[5mC]*eT*eA*eT) [compound 150695]”, the “% INHIB” value is recorded as 11%.

For the substance “ISIS 150690: 2′-MOE gapmer, phosphorothioate, 5-methylcytidines; CTGAAACCTCCAACCCCAGC”, the “% INHIB” value is recorded as “at least 20%”.

For “ISIS 150681: 2′-MOE gapmer, phosphorothioate, 5-methylcytidines; TGGTTTTTAGCTCAAAGAAC (antisense eT*eG*eG*eT*eT*dT*dT*dT*dA*dG*d[5mC]*dT*d[5mC]*dA*dA*eA*eG*eA*eA*e[5mC])”, the “% INHIB” value is “at least 20%”.

On to “150697 (antisense eG*e[5mC]*eA*eA*eG*dA*dA*dA*dG*dT*d[5mC]*d[5mC]*dA*dT*dA*eT*eA*eA*eT*e[5mC]) [compound 150697]”, for which the “% INHIB” value is 18%.

For “150679 (antisense eA*eG*eA*eT*e[5mC]*dT*dG*d[5mC]*dT*d[5mC]*dA*dG*dT*dG*dT*eT*eG*eA*eG*eT) [compound 150679]”, the “% INHIB” value is reported as 16%.

On to “ISIS 150678: 2′-MOE gapmer, phosphorothioate, 5-methylcytidines; AGTGTTGAGTACCCAGTTCT (antisense eA*eG*eT*eG*eT*dT*dG*dA*dG*dT*dA*d[5mC]*d[5mC]*d[5mC]*dA*eG*eT*eT*e[5mC]*eT)”, for which the “% INHIB” value is reported as “at least 20%”.

With “ISIS 150694: 2′-MOE gapmer, phosphorothioate, 5-methylcytidines; ATGTGATGCTTAAACAAAGC (antisense eA*eT*eG*eT*eG*dA*dT*dG*d[5mC]*dT*dT*dA*dA*dA*d[5mC]*eA*eA*eA*eG*e[5mC])”, the “% INHIB” value is listed as “at least 20%”.

As for “150685 (antisense eG*eT*eG*eT*eG*dA*dA*dA*dG*dA*dT*dG*dA*dT*dA*eG*e[5mC]*eA*eT*eT) [compound 150685]”, the “% INHIB” value came to 0%.

For “150677 (antisense eT*eA*e[5mC]*e[5mC]*e[5mC]*dA*dG*dT*dT*d[5mC]*dT*dT*dT*dG*dG*eG*eA*eG*eT*eG) [compound 150677]”, the “% INHIB” value was determined as 0%.
